From article PMC5430962, “Retro-inverso Urokinase Receptor Antagonists for the Treatment of Metastatic Sarcomas” (Scientific Reports, 2017)
Where a SMILES comes first, the peptide text is derived from it. Where no end group is shown, it is not given here. [ ]: non-standard residue; d: D form. The star is where a group is joined. Hydrocinnamoyl = O=C(CCc1ccccc1)*; PhAc = O=C(Cc1ccccc1)*; Aib = CC(C)(N)C(=O)O

Columns and labels:
[1] = tested on: monocyte; conditions: read-out: IC50 of inhibition of fMLF-induced monocyte locomotion; cited from earlier work
Description: The uPAR domains DI-DIII are connected by short linker regions. DI-DIII pack together into a concave structure that shifts to an active conformation upon binding to uPA[21], [22]. The linker between DI-DII is more flexible than that between the DII‒DIII domains[23]–[25], and includes the protease-sensitive crucial signaling region, uPAR84–95. In the form of a synthetic peptide, the minimal 88–92 sequence (Ser^88-Arg-Ser-Arg-Tyr^92, SRSRY) retains chemotactic activity and triggers directional cell migration and angiogenesis in vitro and in vivo [15]–[17], [26], [27]. Mechanistically, these ...

[2] = molecular target: T1, FPR1 (Homo sapiens, UniProt P21462); experiment: Agonist-dependent FPR1 internalization, fluorescence microscopy in RBL-2H3/ETFR cells; type: cell-based; conditions: 100 nM peptide 30 min at 37 °C, then 10 nM FITC-fMLF 30 min at 37 °C; confocal microscopy
T1 construct: expressed in transfected cells; host or cells: rat basophilic leukaemia RBL-2H3/ETFR cells (gift of F. Blasi)
T1 sequence (P21462 1-350): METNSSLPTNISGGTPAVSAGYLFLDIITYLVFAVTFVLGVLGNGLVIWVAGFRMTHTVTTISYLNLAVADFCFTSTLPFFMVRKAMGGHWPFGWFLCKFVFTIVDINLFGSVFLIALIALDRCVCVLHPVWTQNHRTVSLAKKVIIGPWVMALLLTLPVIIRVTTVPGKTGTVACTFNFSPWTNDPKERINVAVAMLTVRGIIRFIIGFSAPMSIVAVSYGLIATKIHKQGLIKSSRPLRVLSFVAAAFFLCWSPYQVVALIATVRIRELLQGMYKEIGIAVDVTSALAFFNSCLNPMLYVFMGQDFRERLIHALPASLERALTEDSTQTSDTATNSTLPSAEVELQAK
Description: Cells grown on glass slides to semi-confluence were exposed to diluents or the indicated unlabeled peptides for 30 min at 37 °C, then to 10 nM FITC-fMLF in PBS for additional 30 min at 37 °C and extensively rinsed with PBS. To visualize the cytoskeleton, the cells were fixed with 2.5% formaldehyde, permeabilized with 0.1% Triton X-100 for 10 min at 4 °C, and incubated with 0.1 µg/mL rhodamine-conjugated phalloidin (Sigma-Aldrich) for 40 min. In all cases, coverslips were mounted using 20% (w/v) Mowiol, visualized with a Zeiss 510META-LSM microscope (Carl Zeiss), and z-series were collected at 0.20 µm intervals.

[3] = molecular target: T1, FPR1; experiment: Ligand binding assay: FITC-fMLF binding to RBL-2H3/ETFR cells; conditions: 100 nM unlabeled peptide 60 min at 4 °C, then 10 nM FITC-fMLF 60 min at 4 °C; fluorescence plate reader
Description: RBL-2H3 cells, RBL-2H3/ETFR cells stably expressing FPR1 (1.5 × 10^6 cells/sample) were pre-incubated with diluents or the indicated unlabeled peptides for 60 min at 4 °C, extensively rinsed with phosphate buffer saline (PBS), exposed to 10 nM FITC-fMLF (Molecular Probes) in PBS for additional 60 min at 4 °C and again rinsed with PBS. Cell-associated fluorescence was quantitated with the fluorescence plate reader Victor 3 (Perkin Elmer) using 485 nm excitation and 535 nm emission filters. The experiments were performed three times in triplicate.

[4] = tested on: HT1080 cells; experiment: HT1080 cell migration toward peptide as chemoattractant, xCELLigence RTCA; type: cell-based, human; conditions: migration toward 10 nM peptide, monitored 18 hr, quadruplicate
Description: The kinetics of cell migration was monitored in real time using the xCELLigence Real Time Cell Analysis (RTCA) technology (Acea Bioscience) as described, [80]. For these experiments we used CIM-plates which are provided with interdigitated gold microelectrodes on the bottom side of a filter membrane interposed between a lower and an upper compartment. The lower chamber was filled with serum-free medium or growth medium with/without RI peptides. Cells (2 × 10^4 cells/well) were seeded on filters in serum-free medium. Cell migration was monitored for 18 hr, and each experiment was performed at least twice in quadruplicate.

[5] = tested on: HT1080 cells; experiment: HT1080 cell migration toward 10% FBS in Boyden chambers; type: cell-based, human; conditions: 10 nM peptide plus 10% FBS, 4 hr, means of three independent experiments in triplicate
Description: (§1) Cell migration in Boyden chambers was carried out for 4 hr at 37 °C in humidified air with 5% CO2, as described. Briefly, cell suspension (1 × 10^5 viable cells/mL serum free medium) was seeded in each upper chamber. Lower chambers were filled with DMEM alone, DMEM containing RI peptides, 10 nM fMLF, or 10% FBS with/without RI peptides. The two compartments were separated by 8 μm pore size polycarbonate filters (Neuroprobe) coated with 2.5 µg/mL vitronectin (Corning). For the invasion assays, 8 μm pore size filters were coated with 50 μg/filter matrigel (BD Biosciences) as previously described[40] and cells (3 × 10^4 viable cells/well) were allowed to invade matrigel for 6 hr at 37 °C, 5% CO2. In all cases, at the end of the assay, cells on the lower filter surface were fixed with ethanol, stained with haematoxylin and 10 random fields/filter were counted at 200× magnification. Each experiment was performed three times in triplicate.

[6] = tested on: HT1080 cells; experiment: HT1080 matrigel invasion toward 10% FBS in Boyden chambers; type: cell-based, human; conditions: 10 nM peptide plus 10% FBS, 6 hr, means of three independent experiments in triplicate
Description: as §1

[7] = tested on: GFP-tagged Sarc cells; experiment: Growth and spread of subcutaneous GFP-tagged Sarc tumors in nude mice; type: in vivo, Foxn1nu/nu female nude mice; conditions: 6 mg/Kg i.p. every day for 12 days, five mice per group
Description: To evaluate the effect of RI-3 on tumor growth and vascularization, Sarc cells were injected, as a single-cell suspension (1 × 10^6 cells in 100 µl of sterile PBS, 97% viability), subcutaneously in the flanks of sixteen six-eight weeks old, Foxn1nu/nu female nude mice (Harlan). Animals were randomized into two 8-mice groups with the treatment group receiving 6 mg/kg RI-3 by intra-peritoneal injection every 24 hr, and the control group receiving an equivalent injected volume of vehicle (PBS) only. Time-dependent average weight was monitored every two days. The length and the width of tumors were measured at different time points with a calliper and volumes were calculated using the formula: ½ × (width)[2] × length (mm). After 10 days, blood samples (at least 500 µL/mouse) from the retro-orbital venous plexus of mice anesthetized with 1% isoflurane were collected using a heparinized capillary tube and processed for determination of the Circulating Tumor Cells (CTCs). Then, the animals were sacrificed, the excised tumors were fixed in buffered formalin and processed for paraffin sectioning. Tumor vascularization was assessed by counting vascular channels harbouring red blood cells on CD31 immuno-stained sections in 5 randomly chosen fields per section, in at least two sections per tumor at x 200 as described. Two additional experiments were carried out with the same experimental design by injecting GFP-tagged Sarc cells (1 × 10^6 cells/mouse) subcutaneously in the flanks of twenty-five six-eight weeks old, Foxn1nu/nu female nude mice (Harlan). Animals were treated with 6 mg/kg RI-3, 6 mg/kg RERF or vehicle by intra-peritoneal injection every 24 hr for 10 or 12 days. Tumor growth and the appearance of positive tumor lesions near tumors and in lungs were monitored as brightly visualized by GFP fluorescence with a MacroFluo fluorescence stereomicroscope (Leica). We searched for the presence of GFP-positive nodules on the entire surface of freshly isolated lungs. Lungs were also sliced at approximately 3-mm thickness to examine the parenchyma in depth, and the positive nodules were acquired at higher magnification.

[8] = cited from earlier work
Description: (§2) Following on this observation, we developed a series of linear peptides that inhibit the uPAR/FPR1 interaction and reduce to basal levels directional cell migration, invasion and angiogenesis[37]–[40]. While providing proof-of-principle for the strategy, none of these peptides represents an ideal lead molecule: many of these peptides are unstable to enzymatic digestion in human serum, which limits their half-life in vivo, whereas ...

[9] = tested on: sarcoma cell; conditions: cited from earlier work
Description: as §2

Compound	reduction of FBS-directed cell migration [5] [%]	reduction of the extent of cell invasion (matrigel) [6] [%]	other results
cyclized SRSRY: cyclized form of the uPAR 88–92 sequence Ser-Arg-Ser-Arg-Tyr (also: cyclized, mode not given here)			IC50 [1]: 0.01 nM
N-formyl-Met-Leu-Phe [fMLF, N-formyl-methionyl-leucyl-phenylalanine, reference compound]			effect on agonist-dependent FPR1 internalization [2]: prevented; effect on binding of FITC-fMLF to RBL-2H3/ETFR cells [3]: strongly reduced; ability to trigger cell migration [4]: elicited a considerable cell migration
CC(=O)N[C@H](Cc1ccc(O)cc1)C(=O)N[C@H](CCCNC(=N)N)C(=O)N[C@H](CO)C(=O)N[C@H](CCCNC(=N)N)C(N)=O [RI-2, Ac-(D)-Tyr-(D)-Arg-(D)-Ser-(D)-Arg-NH2] (Ac-[dY][dR][dS][dR]-NH2)	29	23	
CC(C)(NC(=O)[C@@H](CCCNC(=N)N)NC(=O)CCc1ccccc1)C(=O)N[C@H](CCCNC(=N)N)C(N)=O [RI-5, 3-Phenyl-Propionyl-D-Arg-Aib-D-Arg-NH2] (Hydrocinnamoyl-[dR]-[Aib]-[dR]-NH2)	28	9	
CC(=O)N[C@H](Cc1ccc(O)cc1)C(=O)N[C@H](CCCNC(=N)N)C(=O)N[C@H](CCC(=O)O)C(=O)N[C@H](CCCNC(=N)N)C(N)=O [RI-1, Ac-(D)-Tyr-(D)-Arg-(D)-Glu-(D)-Arg-NH2] (Ac-[dY][dR][dE][dR]-NH2)	33	27	
CC(=O)N[C@@H](CCCNC(=N)N)C(=O)N[C@@H](CCC(=O)O)C(=O)N[C@@H](CCCNC(=N)N)C(=O)N[C@@H](Cc1ccccc1)C(N)=O [RERF, reference compound] (Ac-RERF-NH2)			changes in body weight [7]: did not cause changes in body weight
CC(C)(NC(=O)[C@@H](CCCNC(=N)N)NC(=O)Cc1ccccc1)C(=O)N[C@H](CCCNC(=N)N)C(N)=O [RI-4, Phenyl-Acetyl-D-Arg-Aib-D-Arg-NH2] (PhAc-[dR]-[Aib]-[dR]-NH2)	37	23	
Ac-L-Arg-Aib-L-Arg-D-Ca(Me)Phe-NH2 [UPARANT]			stability in blood and resistance to enzymatic proteolysis [8]: stable in blood and displays prolonged resistance to enzymatic proteolysis; inhibition of sarcoma cell invasion in a mouse model of lung colonization [9]: does not inhibit
